Experimental data taken from publication PMC12434519.
Like-named read-outs stand apart in the source and are kept apart here.

Legend:
[1] = molecular target: human RNMT-RAM complex (Homo sapiens, UniProt O43148); assay: Biochemical activity assay for the human RNMT-RAM complex (MTase-Glo); conditions: for Emax: read-out: hRNMT-RAM inhibition: Maximum response; for hRNMT-RAM inhibition: Hill slope: fit of concentration-response curve
[2] = molecular target: ZIKV NS5 (Zika virus, UniProt Q32ZE1); assay: Biochemical activity assay for ZIKV NS5 MTase (MTase-Glo); conditions: for Emax: 0.75 h, read-out: ZIKV NS5 inhibition: Maximum measured; for ZIKV NS5 inhibition: Hill slope: fit of concentration-response curve
Chain of ZIKV NS5 (Q32ZE1 2517-2781): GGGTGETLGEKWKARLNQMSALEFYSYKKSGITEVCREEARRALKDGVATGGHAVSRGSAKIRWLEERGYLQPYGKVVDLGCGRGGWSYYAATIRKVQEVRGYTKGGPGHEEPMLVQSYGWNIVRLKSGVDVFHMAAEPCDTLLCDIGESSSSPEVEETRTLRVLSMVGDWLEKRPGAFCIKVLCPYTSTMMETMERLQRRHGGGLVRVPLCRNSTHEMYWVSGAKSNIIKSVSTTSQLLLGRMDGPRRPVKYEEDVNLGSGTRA
Protocol: final concentration, lab stock) during dialysis at 4 °C overnight against a buffer containing 50 mM Tris-HCl, pH 7.5, 20 mM imidazole, 500 mM NaCl, and 1 mM dithiothreitol (DTT). To remove the His6-SUMO tag, the protein sample was mixed with cOmplete His-Tag purification resin (Roche), incubated for 2 h at 4 °C, and loaded onto a gravity flow column. Since the His6-SUMO tag bound to the column material, the flow-through was collected containing untagged target protein. The target protein was further purified by a Superdex200 10/300 gel filtration column (GE Healthcare) in buffer (20 mM Tris-HCl, pH 7.5, 500 mM NaCl, 1 mM DTT). Fractions were analyzed by SDS-PAGE and Coomassie staining. Protein-containing fractions were pooled, flash-frozen in liquid nitrogen, and stored at -80 °C. […]
in 1X NSP14 reaction buffer (50 mM Tris-HCl, pH 7.5, 6 mM KCl, 1.25 mM MgCl2, 1 mM DTT, and 0.01% Tween-20) in a total reaction volume of 16 µl in absence or presence of increasing inhibitor compound concentrations for 45 min at 37 °C. SAH production was monitored using the bioluminescence-based MTase-Glo™ Methyltransferase Assay kit (Promega) following manufacturer’s instructions. The luminescence signal of each reaction was recorded in relative light units (RLUs) using a Synergy Neo plate reader (BioTek, Winooski, VT). […] IC50 values (mean from at least 3 independent experiments) were calculated using the GraphPad Prism software (Version 10.1.1) and a four-parameter logistic regression.
Biochemical activity assays for the human RNMT-RAM complex and ZIKV NS5 MTases Activity assays were performed in 1x NSP14 reaction buffer. For hRNMT-RAM, we used 15 nM enzyme, 2.5 µM GpppG and 2 µM SAM. For ZIKV NS5, we used 25 nM enzyme, 3 µM […]
Gppp[…]3, and 5 µM SAM. The enzymatic reaction was initiated with the addition of the enzyme in assay buffer and incubated at RT or 37 °C for 45 min, respectively. SAH was detected using the MTase-Glo™ assay.
Differential scanning fluorimetry (DSF)

[3] = SAH counterscreen inhibition (counterscreen of the MTase-Glo luminescence readout); conditions: for SAH counterscreen inhibition: Maximum response / IC50: LUM % inhibition; for SAH counterscreen inhibition: Hill slope: fit of concentration-response curve; for IC50: read-out: SAH counterscreen inhibition: IC50
[4] = test system: SARS-CoV-2; parameters: method as in PMID 39663451; conditions: transgenic mouse model; efficacy comparable to nirmatrelvir; cited from earlier work
[5] = test system: SARS-CoV-2; assay: SARS-CoV-2 viral infection assay in Huh-7.5 cells; assay type: cell-based, SARS-CoV-2 (strain: USA-WA1/2020); conditions: n = 3
[6] = Cytotoxicity in Huh-7.5 cells; assay type: cell-based, Homo sapiens; conditions: human, n = 3
[7] = test system: Huh-7.5 cells; assay: Cytotoxicity in Huh-7.5 cells; assay type: cell-based, Homo sapiens; conditions: at ≤ 3 μM compound
[8] = LUM % inhibition, read-out: hRNMT-RAM inhibition: IC50
[9] = selectivity assay, read-out: ZIKV NS5 inhibition IC50

Chain of human RNMT-RAM complex (O43148 whole entry): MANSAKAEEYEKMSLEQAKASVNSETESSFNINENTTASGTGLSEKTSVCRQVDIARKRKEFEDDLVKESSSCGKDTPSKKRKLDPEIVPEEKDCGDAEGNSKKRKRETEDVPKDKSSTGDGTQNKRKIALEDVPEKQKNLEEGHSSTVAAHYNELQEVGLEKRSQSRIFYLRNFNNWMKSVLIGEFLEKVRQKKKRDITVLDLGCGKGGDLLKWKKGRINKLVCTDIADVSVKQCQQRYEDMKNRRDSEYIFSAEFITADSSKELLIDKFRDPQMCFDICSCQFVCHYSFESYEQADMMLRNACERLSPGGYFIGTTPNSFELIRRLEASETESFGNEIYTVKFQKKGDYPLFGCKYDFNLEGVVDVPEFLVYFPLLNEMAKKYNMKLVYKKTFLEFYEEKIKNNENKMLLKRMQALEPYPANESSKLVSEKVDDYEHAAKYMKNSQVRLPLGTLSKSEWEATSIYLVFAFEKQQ
Chain of human RNMT-RAM complex (Q9BTL3 whole entry partner): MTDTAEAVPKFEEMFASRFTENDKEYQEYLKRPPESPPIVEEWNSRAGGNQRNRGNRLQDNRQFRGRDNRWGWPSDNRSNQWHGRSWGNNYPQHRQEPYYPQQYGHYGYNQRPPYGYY

Nc1ncnc2c1ncn2C1OC(CC(N)CCC(N)C(=O)O)C(O)C1O (centres unmarked) [RU-0425548]
IC50 [1]: 0.00596 µM
Emax ([1]; LUM % inhibition): 102%
hRNMT-RAM inhibition: Hill slope [1]: 0.881
Emax ([2]; LUM % inhibition): 109%
IC50 ([2]; LUM % inhibition): 0.21 µM
ZIKV NS5 inhibition: Hill slope [2]: 0.774
SAH counterscreen inhibition: Maximum response [3]: 8.34%
SAH counterscreen inhibition: Hill slope [3]: 7.74
IC50 [3]: > 62.5 µM

COc1ccc(-c2ocnc2C(=O)Nc2ccc3oc(=O)n(CC(=O)N4CCCCC4)c3c2)cc1 [RU-0833661, COC1=CC=C(C2=C(C(=O)NC3=CC=C4OC(=O)N(CC(=O)N5CCCCC5)C4=C3)N=CO2)C=C1]
IC50 [1, 8]: > 125 µM
hRNMT-RAM inhibition: Hill slope [1]: 5.03
Emax [1]: 36.6%
Emax ([2]; LUM % inhibition): 66.6%
ZIKV NS5 inhibition: Hill slope [2]: 1.01
IC50 [2, 9]: 73.7 µM
SAH counterscreen inhibition: Maximum response [3]: 20.6%
SAH counterscreen inhibition: Hill slope [3]: 0.36
IC50 [3]: > 125 µM

O=C(Cn1cccc(-c2nc(-c3ccccc3)no2)c1=O)Nc1ccc(F)cc1F [RU-0833868, Fc1c(NC(=O)CN2C=CC=C(c3nc(c4ccccc4)no3)C2=O)ccc(F)c1]
IC50 [1, 8]: > 250 µM
hRNMT-RAM inhibition: Hill slope [1]: 3.14
Emax [1]: 5.14%
Emax ([2]; LUM % inhibition): 64.4%
ZIKV NS5 inhibition: Hill slope [2]: 0.969
IC50 [2, 9]: 122 µM
SAH counterscreen inhibition: Maximum response [3]: 21.5%
SAH counterscreen inhibition: Hill slope [3]: 19.2
IC50 [3]: > 125 µM

Cc1ccc(NC(=O)Cn2nnc3ccccc3c2=O)cc1S(=O)(=O)N1CCCCC1 [RU-0833928, S(=O)(=O)(N1CCCCC1)c1c(C)ccc(NC(=O)CN2N=Nc3c(cccc3)C2=O)c1]
IC50 [1, 8]: > 250 µM
hRNMT-RAM inhibition: Hill slope [1]: 0.501
Emax [1]: 8.18%
Emax ([2]; LUM % inhibition): 9.49%
IC50 ([2]; LUM % inhibition): > 250 µM
ZIKV NS5 inhibition: Hill slope [2]: -7.54
SAH counterscreen inhibition: Maximum response [3]: 21.6%
SAH counterscreen inhibition: Hill slope [3]: -3.01
IC50 [3]: > 125 µM

Cc1nc(C)c(C(=O)NCc2ccc(CNC(=O)c3ccc(O)c(F)c3)cc2)nc1C [RU-0834080, CC1=NC(C)=C(C)N=C1C(=O)NCC1=CC=C(CNC(=O)C2=CC(F)=C(O)C=C2)C=C1]
IC50 [1, 8]: > 250 µM
hRNMT-RAM inhibition: Hill slope [1]: 1.28
Emax [1]: 23.1%
Emax ([2]; LUM % inhibition): 18.4%
IC50 ([2]; LUM % inhibition): > 250 µM
ZIKV NS5 inhibition: Hill slope [2]: 1.81
SAH counterscreen inhibition: Maximum response [3]: 16.2%
SAH counterscreen inhibition: Hill slope [3]: -2.71
IC50 [3]: > 125 µM

CCn1nc(C)c(C(=O)NCCc2ccc(CNC(=O)c3ccc4[nH]ncc4c3)cc2)c1C [RU-0834081, CCN1N=C(C)C(C(=O)NCCC2=CC=C(CNC(=O)C3=CC4=C(C=C3)NN=C4)C=C2)=C1C]
IC50 [1, 8]: > 250 µM
hRNMT-RAM inhibition: Hill slope [1]: 0.243
Emax [1]: 15.2%
Emax ([2]; LUM % inhibition): 15.9%
IC50 ([2]; LUM % inhibition): > 250 µM
ZIKV NS5 inhibition: Hill slope [2]: 4.21
SAH counterscreen inhibition: Maximum response [3]: 11.2%
SAH counterscreen inhibition: Hill slope [3]: 6.42
IC50 [3]: > 125 µM

Cc1cc(C(=O)NCc2ccc(C(=O)NC(C)c3ccccc3C)nc2)ccc1O (centres unmarked) [RU-0834146, CC1=CC(C(=O)NCC2=CN=C(C(=O)NC(C)C3=C(C)C=CC=C3)C=C2)=CC=C1O]
IC50 [1, 8]: > 250 µM
hRNMT-RAM inhibition: Hill slope [1]: 86
Emax [1]: 4.85%
Emax ([2]; LUM % inhibition): 11.2%
IC50 ([2]; LUM % inhibition): > 250 µM
ZIKV NS5 inhibition: Hill slope [2]: 10.6
SAH counterscreen inhibition: Maximum response [3]: 16.1%
SAH counterscreen inhibition: Hill slope [3]: -44.2
IC50 [3]: > 125 µM

Cc1nccc(C(=O)NCC2CCC3(CN(C(=O)c4cc(C)c5[nH]ncc5c4)C3)O2)c1C (centres unmarked) [RU-0834173, CC1=C2C(=CC(C(=O)N3CC4(C3)CCC(CNC(=O)C3=C(C)C(C)=NC=C3)O4)=C1)C=NN2]
IC50 [1, 8]: > 250 µM
hRNMT-RAM inhibition: Hill slope [1]: 1.99
Emax [1]: 3.36%
Emax ([2]; LUM % inhibition): 10.3%
IC50 ([2]; LUM % inhibition): > 250 µM
ZIKV NS5 inhibition: Hill slope [2]: 20.4
SAH counterscreen inhibition: Maximum response [3]: 12.6%
SAH counterscreen inhibition: Hill slope [3]: -9.25
IC50 [3]: > 125 µM

Cc1cccc(C(=O)NCC2CCC3(CN(C(=O)c4cc(C)c5[nH]ncc5c4)C3)O2)c1F (centres unmarked) [RU-0834174, CC1=CC(C(=O)N2CC3(C2)CCC(CNC(=O)C2=CC=CC(C)=C2F)O3)=CC2=C1NN=C2]
IC50 [1, 8]: > 250 µM
hRNMT-RAM inhibition: Hill slope [1]: 0.374
Emax [1]: 26.5%
Emax ([2]; LUM % inhibition): 12.9%
IC50 ([2]; LUM % inhibition): > 250 µM
ZIKV NS5 inhibition: Hill slope [2]: 1.95
SAH counterscreen inhibition: Maximum response [3]: 16.2%
SAH counterscreen inhibition: Hill slope [3]: -17
IC50 [3]: > 125 µM

Cc1ccc(C)c(C(=O)NCC2CCC3(CN(C(=O)c4cc(C)c(O)c(C)c4)C3)O2)c1C (centres unmarked) [RU-0834178, CC1=CC(C(=O)N2CC3(C2)CCC(CNC(=O)C2=C(C)C=CC(C)=C2C)O3)=CC(C)=C1O]
IC50 [1, 8]: > 250 µM
hRNMT-RAM inhibition: Hill slope [1]: 13.1
Emax [1]: 3.1%
Emax ([2]; LUM % inhibition): 20.5%
IC50 ([2]; LUM % inhibition): > 250 µM
ZIKV NS5 inhibition: Hill slope [2]: 0.402
SAH counterscreen inhibition: Maximum response [3]: 18.2%
SAH counterscreen inhibition: Hill slope [3]: -6.31
IC50 [3]: > 125 µM

C[C@@H](NC(=O)c1ccc(CNC(=O)c2ccc3[nH]ncc3c2)cc1)c1cccc(O)c1 [RU-0834179, C[C@@H](NC(=O)C1=CC=C(CNC(=O)C2=CC=C3NN=CC3=C2)C=C1)C1=CC(O)=CC=C1]
IC50 [1, 8]: > 250 µM
hRNMT-RAM inhibition: Hill slope [1]: 0.0614
Emax [1]: 6.78%
Emax ([2]; LUM % inhibition): 12.5%
IC50 ([2]; LUM % inhibition): > 250 µM
ZIKV NS5 inhibition: Hill slope [2]: 1.12
SAH counterscreen inhibition: Maximum response [3]: 14.4%
SAH counterscreen inhibition: Hill slope [3]: 11.5
IC50 [3]: > 125 µM

Cc1cc(C)c(C(=O)NCc2ccc(CNC(=O)c3ccc(O)c(C)c3)cc2)cn1 [RU-0834181, CC1=CC(C(=O)NCC2=CC=C(CNC(=O)C3=CN=C(C)C=C3C)C=C2)=CC=C1O]
IC50 [1, 8]: > 250 µM
hRNMT-RAM inhibition: Hill slope [1]: 0.346
Emax [1]: 20.8%
Emax ([2]; LUM % inhibition): 14.9%
IC50 ([2]; LUM % inhibition): > 250 µM
ZIKV NS5 inhibition: Hill slope [2]: 0.143
SAH counterscreen inhibition: Maximum response [3]: 12.2%
SAH counterscreen inhibition: Hill slope [3]: 63.6
IC50 [3]: > 125 µM

Cc1cnc(C(C)NC(=O)c2ccc(CNC(=O)c3ccc(O)c(C)c3)cn2)nc1 (centres unmarked) [RU-0834184, CC1=CN=C(C(C)NC(=O)C2=NC=C(CNC(=O)C3=CC=C(O)C(C)=C3)C=C2)N=C1]
IC50 [1, 8]: > 250 µM
hRNMT-RAM inhibition: Hill slope [1]: 137
Emax [1]: 5.53%
Emax ([2]; LUM % inhibition): 12.7%
IC50 ([2]; LUM % inhibition): > 250 µM
ZIKV NS5 inhibition: Hill slope [2]: 1.19
SAH counterscreen inhibition: Maximum response [3]: 16.9%
SAH counterscreen inhibition: Hill slope [3]: 13.5
IC50 [3]: > 125 µM

Cc1cnc(C(=O)NCc2ccc(CNC(=O)c3ccc(O)c(C)c3)cc2)c(C)c1 [RU-0834201, CC1=CC(C)=C(C(=O)NCC2=CC=C(CNC(=O)C3=CC=C(O)C(C)=C3)C=C2)N=C1]
IC50 [1, 8]: > 250 µM
hRNMT-RAM inhibition: Hill slope [1]: 35.3
Emax [1]: 6.56%
Emax ([2]; LUM % inhibition): 12.1%
IC50 ([2]; LUM % inhibition): > 250 µM
ZIKV NS5 inhibition: Hill slope [2]: 0.157
SAH counterscreen inhibition: Maximum response [3]: 14.6%
SAH counterscreen inhibition: Hill slope [3]: -59.4
IC50 [3]: > 125 µM

Cc1c(S(=O)(=O)N2CCc3[nH]ncc3C2)cc(C(=O)NCc2c(F)ccc3occc23)n1C [TDI-015051]
Inhibition of viral replication in vivo [4]: inhibited viral replication

Cc1cc(S(=O)(=O)c2cc(C(=O)NCc3c(F)ccc4cnn(C5CC5)c34)n(C)c2C)cc2cn[nH]c12 [TDI-016037]
EC50 ([5]; Huh-7.5 cells, read-out: Anti-SARS-CoV-2 activity EC50): 0.008 µM
EC50 ([5]; Severe acute respiratory syndrome coronavirus 2, Huh7.5, read-out: Anti-SARS-CoV-2 activity EC50, Huh-7.5 cells): 0.0086 µM
CC50 [6]: ≥ 3 µM
Cytotoxicity [7]: no cytotoxicity was detected
